Laboratory results from ChEMBL document CHEMBL1914426, “Phospshoinositide 3-kinase (PI3K)/mammalian target of rapamycin (mTOR) dual inhibitors: discovery and structure-activity relationships of a series of quinoline and quinoxaline derivatives” (J Med Chem, 2011).

Experiments:
in vivo [1] = settings: nude CD1, mouse, plasma, po, 3 mg/kg
Description: Plasma concentration in nude CD1 mouse at 3 mg/kg, po measured after 3 hrs

[2] = target: T1, Phosphatidylinositol 4,5-bisphosphate 3-kinase catalytic subunit delta isoform (Homo sapiens, UniProt O00329)
T1 sequence (O00329 whole entry): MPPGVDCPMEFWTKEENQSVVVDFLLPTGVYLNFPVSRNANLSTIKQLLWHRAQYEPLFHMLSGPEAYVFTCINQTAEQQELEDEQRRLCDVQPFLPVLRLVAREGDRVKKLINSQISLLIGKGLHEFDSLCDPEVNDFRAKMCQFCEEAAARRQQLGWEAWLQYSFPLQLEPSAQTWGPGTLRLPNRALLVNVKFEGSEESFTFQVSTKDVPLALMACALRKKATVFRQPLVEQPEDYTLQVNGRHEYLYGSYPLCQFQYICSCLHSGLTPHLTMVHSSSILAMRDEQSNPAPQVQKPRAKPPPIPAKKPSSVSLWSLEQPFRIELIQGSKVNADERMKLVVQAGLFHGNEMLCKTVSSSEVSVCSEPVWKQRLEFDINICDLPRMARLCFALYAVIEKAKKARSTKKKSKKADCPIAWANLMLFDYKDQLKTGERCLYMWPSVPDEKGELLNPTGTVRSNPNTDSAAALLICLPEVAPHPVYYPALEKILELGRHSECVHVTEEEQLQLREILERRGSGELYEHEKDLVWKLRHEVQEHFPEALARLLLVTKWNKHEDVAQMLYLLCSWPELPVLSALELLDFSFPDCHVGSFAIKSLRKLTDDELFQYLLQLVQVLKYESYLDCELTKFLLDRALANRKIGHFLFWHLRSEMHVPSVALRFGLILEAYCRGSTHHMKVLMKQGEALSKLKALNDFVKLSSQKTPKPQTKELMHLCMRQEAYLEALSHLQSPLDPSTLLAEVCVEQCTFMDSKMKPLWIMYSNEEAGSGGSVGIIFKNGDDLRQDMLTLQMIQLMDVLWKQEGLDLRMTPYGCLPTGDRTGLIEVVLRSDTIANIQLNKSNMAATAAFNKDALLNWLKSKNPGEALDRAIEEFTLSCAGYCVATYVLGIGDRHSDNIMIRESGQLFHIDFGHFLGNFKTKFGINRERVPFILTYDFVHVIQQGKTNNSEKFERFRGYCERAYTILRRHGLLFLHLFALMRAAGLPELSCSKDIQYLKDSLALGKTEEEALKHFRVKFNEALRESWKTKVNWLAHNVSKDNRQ

[3] = target: Phosphatidylinositol 4,5-bisphosphate 3-kinase catalytic subunit gamma isoform (Homo sapiens, UniProt P48736); parameters: species or system Sf9
in vivo [4] = settings: Sprague-Dawley, rat, iv, 1 mg/kg
Description: (§1) Clearance in Sprague-Dawley rat at 1 mg/kg, iv

Mus musculus [5] = organism: Mus musculus; test: animal or person; settings: CD1, po, 3 h, read-out: INH
[6] = Oral bioavailability in Sprague-Dawley rat at 1 mg/kg; type: ADME, organism-based; settings: in vivo
[7] = target: Phosphatidylinositol 3-kinase catalytic subunit type 3 (Homo sapiens, UniProt Q8NEB9)
Description: Inhibition of human VPS34 assessed as ADP formation using ATP by fluorescence-based immunoassay

in vivo [8] = settings: nude CD1, mouse, plasma, po, 0.3 mg/kg
Description: Plasma concentration in nude CD1 mouse at 0.3 mg/kg, po measured after 3 hrs

in vitro [9] = settings: rat, liver microsomes
Description: Clearance in rat liver microsomes assessed as compound remaining at 1 uM after 30 mins

in vivo [10] = settings: Sprague-Dawley, rat, iv, 1 mg/kg; remark: listed apart in the source
Description: (§2) Volume of distribution at steady-state in Sprague-Dawley rat at 1 mg/kg, iv

Mus musculus [11] = organism: Mus musculus; test: animal or person; settings: CD1, po, 3 h, read-out: INH; remark: listed apart in the source
in vitro [12] = settings: human, liver microsomes
Description: Clearance in human liver microsomes assessed as compound remaining at 1 uM after 30 mins

[13] = AUC in Sprague-Dawley rat at 1 mg/kg, po; type: ADME, organism-based; parameters: dose 1 mg/kg, route oral; settings: plasma
[14] = target: Phosphatidylinositol 4,5-bisphosphate 3-kinase catalytic subunit beta isoform (Homo sapiens, UniProt P42338)
Mus musculus [15] = organism: Mus musculus; test: animal or person; settings: CD1, po, 3 h, read-out: INH; remark: listed apart in the source
in vivo [16] = settings: nude CD1, mouse, plasma, po, 1 mg/kg
Description: Plasma concentration in nude CD1 mouse at 1 mg/kg, po measured after 3 hrs

Rattus norvegicus [17] = organism: Rattus norvegicus; settings: in vivo, iv, 1 mg/kg
Description: Hepatic blood flow in Sprague-Dawley rat 1 mg/kg, iv

in vivo [18] = settings: Sprague-Dawley, rat, iv, 1 mg/kg; remark: listed apart in the source
Description: (§3) Mean residence time in Sprague-Dawley rat at 1 mg/kg, iv

[19] = target: Serine/threonine-protein kinase mTOR (Homo sapiens, UniProt P42345)
Description: Inhibition of mTOR using GFP-tagged 4E-BP1 after 1 hr by spectrophotometric analysis

[20] = target: T2, Phosphatidylinositol 4,5-bisphosphate 3-kinase catalytic subunit alpha isoform (Homo sapiens, UniProt P42336)
[21] = target: T2, Phosphatidylinositol 4,5-bisphosphate 3-kinase catalytic subunit alpha isoform; remark: listed apart in the source
Rattus norvegicus [22] = organism: Rattus norvegicus; settings: in vivo, iv, 1 mg/kg; remark: listed apart in the source
Description: as §3

Rattus norvegicus [23] = organism: Rattus norvegicus; settings: in vivo, iv, 1 mg/kg; remark: listed apart in the source
Description: as §2

Rattus norvegicus [24] = organism: Rattus norvegicus; settings: in vivo, iv, 1 mg/kg; remark: listed apart in the source
Description: as §1

Mus musculus [25] = test: Inhibition of PI3K-induced Akt phosphorylation at Ser 473 in HGF-stimulated nude CD1 mouse at 1 mg/kg, po measured after 4 hrs by quantitative electrochemiluminescence immunoassay; type: functional; settings: CD1, 4 h
[26] = Plasma concentration in nude CD1 mouse at 0.3 mg/kg, po measured after 4 hrs; type: ADME, organism-based; parameters: dose 0.3 mg/kg, route oral
[27] = Plasma concentration in nude CD1 mouse at 1 mg/kg, po measured after 4 hrs; type: ADME, organism-based; parameters: dose 1 mg/kg, route oral
Mus musculus [28] = test: Inhibition of PI3K-induced Akt phosphorylation at Ser 473 in HGF-stimulated nude CD1 mouse at 0.3 mg/kg, po measured after 4 hrs by quantitative electrochemiluminescence immunoassay; type: functional; settings: CD1, 4 h
[29] = Plasma concentration in nude CD1 mouse at 3 mg/kg, po measured after 4 hrs; type: ADME, organism-based; parameters: dose 3 mg/kg, route oral
Mus musculus [30] = test: Inhibition of PI3K-induced Akt phosphorylation at Ser 473 in HGF-stimulated nude CD1 mouse at 3 mg/kg, po measured after 4 hrs by quantitative electrochemiluminescence immunoassay; type: functional; settings: CD1, 4 h
[31] = target: DNA-dependent protein kinase catalytic subunit (Homo sapiens, UniProt P78527)
Description: Inhibition of DNA-PK using fluorescein-p53 peptide as substrate after 1 hr by TR-FRET enzyme assay

Sequence of Phosphatidylinositol 4,5-bisphosphate 3-kinase catalytic subunit gamma isoform (P48736 whole entry, canonical isoform): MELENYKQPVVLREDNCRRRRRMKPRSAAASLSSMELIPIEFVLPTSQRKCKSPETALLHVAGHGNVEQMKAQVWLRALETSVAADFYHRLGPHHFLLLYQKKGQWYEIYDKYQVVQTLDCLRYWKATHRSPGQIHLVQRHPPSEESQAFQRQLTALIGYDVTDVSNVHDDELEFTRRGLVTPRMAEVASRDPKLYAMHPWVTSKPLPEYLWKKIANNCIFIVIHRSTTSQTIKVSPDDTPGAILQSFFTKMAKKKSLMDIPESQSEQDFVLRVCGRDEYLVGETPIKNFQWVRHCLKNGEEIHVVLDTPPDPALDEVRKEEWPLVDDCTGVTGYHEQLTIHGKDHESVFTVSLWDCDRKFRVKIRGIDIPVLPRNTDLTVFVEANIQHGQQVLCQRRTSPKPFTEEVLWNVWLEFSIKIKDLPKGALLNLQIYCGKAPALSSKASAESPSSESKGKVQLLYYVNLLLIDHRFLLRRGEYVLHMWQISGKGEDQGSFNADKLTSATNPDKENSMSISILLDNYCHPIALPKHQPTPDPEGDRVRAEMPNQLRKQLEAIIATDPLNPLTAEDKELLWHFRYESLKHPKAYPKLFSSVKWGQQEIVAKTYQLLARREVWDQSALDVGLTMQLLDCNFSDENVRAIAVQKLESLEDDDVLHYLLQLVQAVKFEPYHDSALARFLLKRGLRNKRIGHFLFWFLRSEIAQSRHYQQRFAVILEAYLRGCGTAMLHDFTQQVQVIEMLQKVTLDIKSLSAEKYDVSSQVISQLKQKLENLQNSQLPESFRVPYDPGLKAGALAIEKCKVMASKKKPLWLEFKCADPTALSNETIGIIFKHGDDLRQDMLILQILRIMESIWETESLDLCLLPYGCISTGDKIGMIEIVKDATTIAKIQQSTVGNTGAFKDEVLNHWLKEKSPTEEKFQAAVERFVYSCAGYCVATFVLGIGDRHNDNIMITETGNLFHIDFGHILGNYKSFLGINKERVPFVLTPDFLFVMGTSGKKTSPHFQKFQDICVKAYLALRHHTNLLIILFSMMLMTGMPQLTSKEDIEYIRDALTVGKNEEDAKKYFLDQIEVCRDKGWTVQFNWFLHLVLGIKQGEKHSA
Sequence of Phosphatidylinositol 3-kinase catalytic subunit type 3 (Q8NEB9 whole entry): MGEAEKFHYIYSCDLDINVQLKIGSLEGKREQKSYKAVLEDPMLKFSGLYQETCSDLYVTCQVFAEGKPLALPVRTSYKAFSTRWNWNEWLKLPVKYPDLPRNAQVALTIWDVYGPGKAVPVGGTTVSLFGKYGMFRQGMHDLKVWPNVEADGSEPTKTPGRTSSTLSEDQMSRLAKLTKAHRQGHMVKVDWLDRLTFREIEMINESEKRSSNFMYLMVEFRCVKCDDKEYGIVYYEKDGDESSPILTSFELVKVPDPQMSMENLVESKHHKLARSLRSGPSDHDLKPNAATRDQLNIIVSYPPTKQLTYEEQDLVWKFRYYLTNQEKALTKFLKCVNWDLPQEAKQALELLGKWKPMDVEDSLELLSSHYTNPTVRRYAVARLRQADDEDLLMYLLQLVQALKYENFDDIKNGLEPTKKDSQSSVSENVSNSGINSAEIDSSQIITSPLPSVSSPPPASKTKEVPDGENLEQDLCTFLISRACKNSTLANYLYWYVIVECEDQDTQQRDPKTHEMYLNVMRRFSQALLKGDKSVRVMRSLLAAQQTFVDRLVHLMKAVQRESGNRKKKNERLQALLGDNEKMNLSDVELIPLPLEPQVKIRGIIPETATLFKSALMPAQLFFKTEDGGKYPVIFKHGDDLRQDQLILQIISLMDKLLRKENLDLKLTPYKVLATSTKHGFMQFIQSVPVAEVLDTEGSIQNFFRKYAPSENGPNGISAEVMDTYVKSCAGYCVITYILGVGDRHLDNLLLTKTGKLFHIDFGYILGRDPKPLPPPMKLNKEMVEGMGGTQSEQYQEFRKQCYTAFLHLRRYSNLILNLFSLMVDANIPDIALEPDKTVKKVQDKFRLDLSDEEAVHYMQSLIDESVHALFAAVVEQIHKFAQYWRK
Sequence of Phosphatidylinositol 4,5-bisphosphate 3-kinase catalytic subunit beta isoform (P42338 whole entry, canonical isoform): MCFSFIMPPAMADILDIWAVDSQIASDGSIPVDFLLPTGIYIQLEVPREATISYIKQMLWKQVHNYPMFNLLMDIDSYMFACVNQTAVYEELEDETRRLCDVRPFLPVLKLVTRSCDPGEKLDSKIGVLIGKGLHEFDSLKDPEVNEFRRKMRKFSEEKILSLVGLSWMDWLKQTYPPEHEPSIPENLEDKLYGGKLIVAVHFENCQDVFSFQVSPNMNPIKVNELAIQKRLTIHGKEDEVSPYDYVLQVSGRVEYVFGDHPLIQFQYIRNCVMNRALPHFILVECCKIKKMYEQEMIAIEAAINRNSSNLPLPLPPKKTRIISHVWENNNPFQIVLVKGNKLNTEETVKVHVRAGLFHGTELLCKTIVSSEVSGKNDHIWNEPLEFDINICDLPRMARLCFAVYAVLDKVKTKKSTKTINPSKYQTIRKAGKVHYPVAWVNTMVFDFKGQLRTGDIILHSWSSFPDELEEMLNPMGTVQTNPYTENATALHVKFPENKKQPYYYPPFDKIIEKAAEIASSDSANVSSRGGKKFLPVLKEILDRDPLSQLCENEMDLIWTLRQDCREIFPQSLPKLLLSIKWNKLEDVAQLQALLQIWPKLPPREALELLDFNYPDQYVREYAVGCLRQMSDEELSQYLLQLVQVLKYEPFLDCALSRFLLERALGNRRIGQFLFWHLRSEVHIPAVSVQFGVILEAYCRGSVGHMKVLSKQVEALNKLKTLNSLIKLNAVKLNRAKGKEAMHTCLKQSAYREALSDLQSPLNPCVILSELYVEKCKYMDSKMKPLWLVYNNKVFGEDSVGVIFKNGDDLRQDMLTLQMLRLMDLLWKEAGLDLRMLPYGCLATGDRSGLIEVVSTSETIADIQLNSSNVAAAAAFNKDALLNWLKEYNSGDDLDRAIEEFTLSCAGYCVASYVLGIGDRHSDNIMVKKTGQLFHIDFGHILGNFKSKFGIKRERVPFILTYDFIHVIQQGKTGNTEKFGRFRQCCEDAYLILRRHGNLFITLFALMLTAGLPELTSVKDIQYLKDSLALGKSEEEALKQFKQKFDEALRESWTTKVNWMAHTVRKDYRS
T2 sequence (P42336 whole entry, canonical isoform): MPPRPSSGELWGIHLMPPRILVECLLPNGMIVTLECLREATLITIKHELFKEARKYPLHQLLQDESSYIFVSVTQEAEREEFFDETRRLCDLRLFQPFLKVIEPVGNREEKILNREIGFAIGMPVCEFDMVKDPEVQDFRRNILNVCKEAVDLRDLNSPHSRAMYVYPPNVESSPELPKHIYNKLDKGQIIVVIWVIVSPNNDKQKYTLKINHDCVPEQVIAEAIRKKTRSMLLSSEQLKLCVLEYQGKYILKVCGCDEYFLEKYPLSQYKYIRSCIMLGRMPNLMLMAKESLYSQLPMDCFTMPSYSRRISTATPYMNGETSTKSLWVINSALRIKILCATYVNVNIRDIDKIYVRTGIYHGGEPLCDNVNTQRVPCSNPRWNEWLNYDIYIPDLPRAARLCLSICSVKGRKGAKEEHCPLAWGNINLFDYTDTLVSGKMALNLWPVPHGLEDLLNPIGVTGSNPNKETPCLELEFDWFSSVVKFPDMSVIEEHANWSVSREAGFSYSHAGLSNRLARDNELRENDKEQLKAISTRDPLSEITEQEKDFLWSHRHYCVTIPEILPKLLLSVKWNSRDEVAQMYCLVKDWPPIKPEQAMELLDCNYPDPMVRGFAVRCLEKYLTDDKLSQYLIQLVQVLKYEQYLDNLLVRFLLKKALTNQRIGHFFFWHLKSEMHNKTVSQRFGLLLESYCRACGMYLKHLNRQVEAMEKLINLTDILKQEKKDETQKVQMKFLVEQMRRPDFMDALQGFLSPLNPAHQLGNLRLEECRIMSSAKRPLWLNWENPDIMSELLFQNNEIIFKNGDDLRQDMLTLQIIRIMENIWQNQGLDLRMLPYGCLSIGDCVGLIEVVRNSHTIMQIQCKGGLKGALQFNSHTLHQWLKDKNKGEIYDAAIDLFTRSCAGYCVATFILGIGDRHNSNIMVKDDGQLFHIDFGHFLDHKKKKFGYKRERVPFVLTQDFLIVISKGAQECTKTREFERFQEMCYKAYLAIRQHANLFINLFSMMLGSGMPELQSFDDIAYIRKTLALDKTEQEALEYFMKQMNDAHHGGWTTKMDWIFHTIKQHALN

Work on `O=S(=O)(Nc1cc(-c2ccc3nccc(-c4cccnc4)c3c2)cnc1Cl)c1ccc(F)cc1` yielded a concentration at 3 h (in vivo [1]) of 2330 ng/mL, an IC50 [2] of 5.9 nM and an IC50 [3] of 7.7 nM. It also gave a clearance (in vivo [4]) of 2.17 mL/min/kg, an inhibition in vivo at 1 mg/kg (Mus musculus [5]) of 97% and a bioavailability [6] of 73%. The IC50 [7] was 2.9 nM, the concentration at 3 h (in vivo [8]) was 210 ng/mL and the microsomal CLint at 0.5 h, 1 µM (in vitro [9]) was 33 µL/min/mg. For the same compound, the Vd (in vivo [10]) was 0.81 L/kg, the inhibition in vivo at 3 mg/kg (Mus musculus [11]) was 99% and the microsomal CLint at 0.5 h, 1 µM (in vitro [12]) was under 14 µL/min/mg. The AUC [13] was 5630 ng·h/mL, the IC50 [14] was 10 nM and the inhibition in vivo at 0.3 mg/kg (Mus musculus [15]) was 70%. The concentration at 3 h (in vivo [16]) was 899 ng/mL, the QH (Rattus norvegicus [17]) was 0.6% and the MRT (in vivo [18]) was 6.3 h.

`O=S(=O)(Nc1cc(-c2ccc3nccc(-c4ccncc4)c3c2)cnc1Cl)c1ccc(F)cc1` gave a concentration at 3 h (in vivo [1]) of 2470 ng/mL, an IC50 [2] of 6 nM and an IC50 [3] of 13 nM. The IC50 [19] was 0.41 nM, the clearance (in vivo [4]) was 0.667 mL/min/kg and the inhibition in vivo at 1 mg/kg (Mus musculus [5]) was 98%. The bioavailability [6] was 70%, the IC50 [7] was 5.3 nM and the concentration at 3 h (in vivo [8]) was 326 ng/mL. It also gave a microsomal CLint at 0.5 h, 1 µM (in vitro [9]) of 20 µL/min/mg, a Vd (in vivo [10]) of 0.52 L/kg and an inhibition in vivo at 3 mg/kg (Mus musculus [11]) of over 99%. The microsomal CLint at 0.5 h, 1 µM (in vitro [12]) was under 14 µL/min/mg, the AUC [13] was 14700 ng·h/mL and the IC50 [14] was 15 nM. The inhibition in vivo at 0.3 mg/kg (Mus musculus [15]) was 89%, the concentration at 3 h (in vivo [16]) was 950 ng/mL and the QH (Rattus norvegicus [17]) was 0.6%. For the same compound, the MRT (in vivo [18]) was 15 h.

Compound `CN(C)c1ccc(-c2ccnc3ccc(-c4cnc(Cl)c(NS(=O)(=O)c5ccc(F)cc5)c4)cc23)cc1` has a Ki [20] of 0.7 nM and an IC50 [21] of 61 nM.

Compound `O=S(=O)(Nc1cc(-c2ccc3ncc(NCC4CCCNC4)nc3c2)cnc1Cl)c1ccc(F)cc1` (stereo unspecified) has a Ki [20] of 3.3 nM and an IC50 [21] of 2710 nM.

For `O=S(=O)(Nc1cc(-c2ccc3ncc(NCCN4CCCCC4)nc3c2)cnc1Cl)c1ccc(F)cc1`, the MRT (Rattus norvegicus [22]) was 2.1 h, the bioavailability [6] was 16% and the Vdss (Rattus norvegicus [23]) was 0.19 L/kg. It also gave a microsomal CLint at 0.5 h, 1 µM (in vitro [9]) of under 14 µL/min/mg, a microsomal CLint at 0.5 h, 1 µM (in vitro [12]) of 25 µL/min/mg and a CL (Rattus norvegicus [24]) of 9.83 mL/min/kg. For the same compound, the AUC [13] was 271 ng·h/mL and the QH (Rattus norvegicus [17]) was 0.6%.

With `O=S(=O)(Nc1cc(-c2ccc3ncc(NCCN4CCOCC4)nc3c2)cnc1Cl)c1ccc(F)cc1` the IC50 [2] was 6 nM, the IC50 [3] was 16 nM and the IC50 [14] was 9.8 nM.

For `O=S(=O)(Nc1cc(-c2ccc3ncc(N4CCCCC4)nc3c2)cnc1Cl)c1ccc(F)cc1`, the Ki [20] was 0.9 nM and the IC50 [21] was 128 nM.

`O=S(=O)(Nc1cc(-c2ccc3ncc(N4CCC(F)(F)CC4)nc3c2)cnc1Cl)c1ccc(F)cc1` showed a Ki [20] of 0.6 nM and an IC50 [21] of 189 nM.

`O=S(=O)(Nc1cc(-c2ccc3ncc(N4C[C@H]5CC[C@H](CC5)C4)nc3c2)cnc1Cl)c1ccc(F)cc1` gave a Ki [20] of 1 nM and an IC50 [21] of 247 nM.

In the case of `CC(C)N1CCN(c2cnc3ccc(-c4cnc(Cl)c(NS(=O)(=O)c5ccc(F)cc5)c4)cc3n2)CC1`, the IC50 [2] is reported as 5.6 nM, the IC50 [3] is reported as 13 nM and the IC50 [19] is reported as 37 nM. It also gave an inhibition in vivo at 1 mg/kg (Mus musculus [25]) of 86%, a concentration at 4 h [26] of 155 ng/mL and a clearance (in vivo [4]) of 1.33 mL/min/kg. The bioavailability [6] was 72%, the concentration at 4 h [27] was 417 ng/mL and the microsomal CLint at 0.5 h, 1 µM (in vitro [9]) was 32 µL/min/mg. It also gave an inhibition in vivo at 0.3 mg/kg (Mus musculus [28]) of 50%, a Vd (in vivo [10]) of 0.4 L/kg and a microsomal CLint at 0.5 h, 1 µM (in vitro [12]) of 31 µL/min/mg. For the same compound, the AUC [13] was 10800 ng·h/mL, the Ki [20] was 0.8 nM and the concentration at 4 h [29] was 1790 ng/mL. It also gave an inhibition in vivo at 3 mg/kg (Mus musculus [30]) of 95%, an IC50 [21] of 17 nM and a QH (Rattus norvegicus [17]) of 0.6%. It also gave an MRT (in vivo [18]) of 5.4 h.

With `O=S(=O)(Nc1cc(-c2ccc3ncc(N4CCOCC4)nc3c2)cnc1Cl)c1ccc(F)cc1` the IC50 [2] was 4.4 nM, the IC50 [3] was 2.4 nM and the IC50 [19] was 5 nM. It also gave an inhibition in vivo at 1 mg/kg (Mus musculus [25]) of 86%, a concentration at 4 h [26] of 448 ng/mL and a clearance (in vivo [4]) of 0.333 mL/min/kg. It also gave a bioavailability [6] of 88%, a concentration at 4 h [27] of 1730 ng/mL and an IC50 [7] of 5 nM. It also gave a microsomal CLint at 0.5 h, 1 µM (in vitro [9]) of 16 µL/min/mg, an inhibition in vivo at 0.3 mg/kg (Mus musculus [28]) of 55% and a Vd (in vivo [10]) of 0.19 L/kg. The microsomal CLint at 0.5 h, 1 µM (in vitro [12]) was under 14 µL/min/mg, the AUC [13] was 29600 ng·h/mL and the concentration at 4 h [29] was 4470 ng/mL. The IC50 [31] was 3.4 nM, the inhibition in vivo at 3 mg/kg (Mus musculus [30]) was 97% and the QH (Rattus norvegicus [17]) was 0.6%. It also gave an MRT (in vivo [18]) of 9 h.
